Laboratory results published in patent US20230348376A1 (TEIJIN PHARMA LIMITED, priority 2020, published 2023).

Target: T1, human VDR (Homo sapiens, UniProt P11473)
T1 sequence (P11473 1-427): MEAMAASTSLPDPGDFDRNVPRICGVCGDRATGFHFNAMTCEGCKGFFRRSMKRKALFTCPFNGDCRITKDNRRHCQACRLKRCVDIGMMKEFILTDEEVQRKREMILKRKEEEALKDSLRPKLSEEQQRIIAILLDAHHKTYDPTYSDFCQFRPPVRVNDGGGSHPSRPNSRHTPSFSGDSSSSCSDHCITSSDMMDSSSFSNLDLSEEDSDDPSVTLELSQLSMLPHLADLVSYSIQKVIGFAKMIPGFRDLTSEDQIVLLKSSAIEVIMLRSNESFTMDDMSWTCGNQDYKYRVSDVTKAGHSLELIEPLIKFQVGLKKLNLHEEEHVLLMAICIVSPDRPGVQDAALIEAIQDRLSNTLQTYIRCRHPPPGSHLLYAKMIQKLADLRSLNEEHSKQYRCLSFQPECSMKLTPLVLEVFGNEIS
T1 sequence (P19793 1-462 partner): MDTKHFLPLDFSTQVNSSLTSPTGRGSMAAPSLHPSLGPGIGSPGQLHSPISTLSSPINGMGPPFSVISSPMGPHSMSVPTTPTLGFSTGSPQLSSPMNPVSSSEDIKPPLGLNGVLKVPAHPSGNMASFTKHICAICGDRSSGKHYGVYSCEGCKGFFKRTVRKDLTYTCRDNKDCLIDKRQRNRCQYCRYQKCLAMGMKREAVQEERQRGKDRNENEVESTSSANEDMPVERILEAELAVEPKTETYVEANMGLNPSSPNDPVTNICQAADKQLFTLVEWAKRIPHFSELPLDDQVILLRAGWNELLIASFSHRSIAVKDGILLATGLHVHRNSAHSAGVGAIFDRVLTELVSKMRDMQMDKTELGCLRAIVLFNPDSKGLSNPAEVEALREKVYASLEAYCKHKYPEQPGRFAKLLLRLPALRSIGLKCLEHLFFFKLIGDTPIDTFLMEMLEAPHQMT
Assay: Evaluation of VDR transcription activity in human osteoblasts (HOS cells), luciferase reporter
Settings: Activity (EC50, VDR transcription activity), HOS cells transfected with human VDR, human RXRα and DR3 luciferase reporter; 21 hours

Row | EC50 | SMILES
1 | 10 to 100 nM | C=C1/C(=C\C=C2/CCC[C@]3(C)[C@@H]([C@H](C)CN4CC(C(C)(F)F)C4)CC[C@@H]23)C[C@@H](O)[C@H](C)[C@@H]1O [Compound A008, (1R,2S,3S,Z)-5-(2-((1R,3aS,7aR,E)-1-((S)-1-(3-(1,1-difluoroethyl)azetidin-1-yl)propan-2-yl)-7a-methyloctahydro-4H-inden-4-ylidene)ethylidene)-2-methyl-4-methylenecyclohexane-1,3-diol]
2 | 10 to 100 nM | C=C1/C(=C\C=C2/CCC[C@]3(C)[C@@H]([C@H](C)CN4CC[C@@H](CCC(F)F)C4)CC[C@@H]23)C[C@@H](O)C[C@@H]1O [Compound B060, (1R,3S,Z)-5-(2-((1R,3aS,7aR,E)-1-((S)-1-((R)-3-(3,3-difluoropropyl)pyrrolidin-1-yl)propan-2-yl)-7a-methyloctahydro-4H-inden-4-ylidene)ethylidene)-4-methylenecyclohexane-1,3-diol]
3 | 10 to 100 nM | C[C@H](CCN1CC[C@@H](F)C1)[C@H]1CC[C@H]2/C(=C/C=C3C[C@@H](O)C[C@H](O)C3)CCC[C@]12C [Compound B015, (1R,3R)-5-(2-((1R,3aS,7aR,E)-1-((R)-4-((R)-3-fluoropyrrolidin-1-yl)butan-2-yl)-7a-methyloctahydro-4H-inden-4-ylidene)ethylidene)cyclohexane-1,3-diol]
4 | 10 to 100 nM | C=C1[C@H](O)CC(=C/C=C2\CCC[C@]3(C)[C@@H]([C@H](C)CN4CCC(O)(C(F)(F)F)CC4)CC[C@@H]23)C[C@H]1O [Compound C004, (1R,3R)-5-(2-((1R,3aS,7aR,E)-1-((S)-1-(4-hydroxy-4-(trifluoromethyl)piperidin-1-yl)propan-2-yl)-7a-methyloctahydro-4H-inden-4-ylidene)ethylidene)-2-methylenecyclohexane-1,3-diol]
5 | 10 to 100 nM | C=C1/C(=C\C=C2/CCC[C@]3(C)[C@@H]([C@@H](C)CN4CCC(C(F)F)CC4)CC[C@@H]23)C[C@@H](O)C[C@@H]1O [Compound C017, (1R,3S,Z)-5-(2-((1R,3aS,7aR,E)-1-((R)-1-(4-(difluoromethyl)piperidin-1-yl)propan-2-yl)-7a-methyloctahydro-4H-inden-4-ylidene)ethylidene)-4-methylenecyclohexane-1,3-diol]
6 | 1 to 10 nM | C=C1[C@H](O)CC(=C/C=C2\CCC[C@]3(C)[C@@H]([C@H](C)CN4CCC[C@H](C(F)F)C4)CC[C@@H]23)C[C@H]1O [Compound C049, (1R,3R)-5-(2-((1R,3aS,7aR,E)-1-((S)-1-((S)-3-(difluoromethyl)piperidin-1-yl)propan-2-yl)-7a-methyloctahydro-4H-inden-4-ylidene)ethylidene)-2-methylenecyclohexane-1,3-diol]
7 | 10 to 100 nM | C[C@@H](CN1CCC(C(F)F)CC1)[C@H]1CC[C@H]2/C(=C/C=C3C[C@@H](O)C[C@H](O)C3)CCC[C@]12C [Compound C018, (1R,3R)-5-(2-((1R,3aS,7aR,E)-1-((R)-1-(4-(difluoromethyl)piperidin-1-yl)propan-2-yl)-7a-methyloctahydro-4H-inden-4-ylidene)ethylidene)cyclohexane-1,3-diol]
8 | 10 to 100 nM | COC1(C(F)(F)F)CN(C[C@@H](C)[C@H]2CC[C@H]3/C(=C/C=C4C[C@@H](O)C[C@H](O)C4)CCC[C@]23C)C1 [Compound A012, (1R,3R)-5-(2-((1R,3aS,7aR,E)-1-((S)-1-(3-methoxy-3-trifluoromethylazetidin-1-yl)propan-2-yl)-7a-methyloctahydro-4H-inden-4-ylidene)ethylidene)cyclohexane-1,3-diol]
9 | < 1 nM | C=C1[C@H](O)CC(=C/C=C2\CCC[C@]3(C)[C@@H]([C@H](C)CN4CC(O)(C(F)(F)F)C4)CC[C@@H]23)C[C@H]1O [Compound A011, (1R,3R)-5-(2-((1R,3aS,7aR,E)-1-((S)-1-(3-hydroxy-3-(trifluoromethyl)azetidin-1-yl)propan-2-yl)-7a-methyloctahydro-4H-inden-4-ylidene)ethylidene)-2-methylenecyclohexane-1,3-diol]
10 | 10 to 100 nM | C[C@H](CN1CC[C@H](OC(F)(F)F)C1)[C@H]1CC[C@H]2/C(=C/C=C3CC(O)C[C@H](O)C3)CCC[C@]12C (stereo in doubt) [Compound B069, (1R,3S)-5-(2-((1R,3aS,7aR,E)-7a-methyl-1-((S)-1-((S)-3-(trifluoromethoxy)pyrrolidin-1-yl)propan-2-yl)octahydro-4H-inden-4-ylidene)ethylidene)cyclohexane-1,3-diol]
11 | 10 to 100 nM | CCC1(O)CCCN(C[C@@H](C)[C@H]2CC[C@H]3/C(=C/C=C4C[C@@H](O)C[C@H](O)C4)CCC[C@]23C)C1 (single isomer, unassigned) [Compound C044a]
12 | 1 to 10 nM | C=C1[C@H](O)CC(=C/C=C2\CCC[C@]3(C)[C@@H]([C@H](C)CCN4C[C@@H](C)OC[C@H]4C)CC[C@@H]23)C[C@H]1O [Compound D039, (1R,3R)-5-(2-((1R,3aS,7aR,E)-1-((R)-4-((2R,5R)-2,5-dimethylmorpholino)butan-2-yl)-7a-methyloctahydro-4H-inden-4-ylidene)ethylidene)-2-methylenecyclohexane-1,3-diol]
13 | 1 to 10 nM | C=C1[C@H](O)CC(=C/C=C2\CCC[C@]3(C)[C@@H]([C@@H](C)CN4CCC(O)(C(F)F)CC4)CC[C@@H]23)C[C@H]1O [Compound C026, (1R,3R)-5-(2-((1R,3aS,7aR,E)-1-((R)-1-(4-(difluoromethyl)-4-hydroxypiperidin-1-yl)propan-2-yl)-7a-methyloctahydro-4H-inden-4-ylidene)ethylidene)-2-methylenecyclohexane-1,3-diol]
14 | 10 to 100 nM | C[C@H](CCN1CC[C@H](C(C)(F)F)C1)[C@H]1CC[C@H]2/C(=C/C=C3C[C@@H](O)C[C@H](O)C3)CCC[C@]12C [Compound B083, (1R,3R)-5-(2-((1R,3aS,7aR,E)-1-((R)-4-((S)-3-(1,1-difluoroethyl)pyrrolidin-1-yl)butan-2-yl)-7a-methyloctahydro-4H-inden-4-ylidene)ethylidene)cyclohexane-1,3-diol]
15 | 100 to 1000 nM | C[C@H](CN1CC(CC(F)F)C1)[C@H]1CC[C@H]2/C(=C/C=C3C[C@@H](O)C[C@H](O)C3)CCC[C@]12C [Compound A021, (1R,3R)-5-(2-((1R,3aS,7aR,E)-1-((S)-1-(3-(2,2-difluoroethyl)azetidin-1-yl)propan-2-yl)-7a-methyloctahydro-4H-inden-4-ylidene)ethylidene)cyclohexane-1,3-diol]
16 | < 1 nM | C=C1[C@H](O)CC(=C/C=C2\CCC[C@]3(C)[C@@H]([C@H](C)CN4CCC[C@](C)(O)C4)CC[C@@H]23)C[C@H]1O [Compound C041, (1R,3R)-5-(2-((1R,3aS,7aR,E)-1-((S)-1-((S)-3-hydroxy-3-methylpiperidin-1-yl)propan-2-yl)-7a-methyloctahydro-4H-inden-4-ylidene)ethylidene)-2-methylenecyclohexane-1,3-diol]
17 | 1 to 10 nM | C=C1[C@H](O)CC(=C/C=C2\CCC[C@]3(C)[C@@H]([C@H](C)CCN4CC[C@@H](C(C)(F)F)C4)CC[C@@H]23)C[C@H]1O [Compound B093, (1R,3R)-5-(2-((1R,3aS,7aR,E)-1-((R)-4-((R)-3-(1,1-difluoroethyl)pyrrolidin-1-yl)butan-2-yl)-7a-methyloctahydro-4H-inden-4-ylidene)ethylidene)-2-methylenecyclohexane-1,3-diol]
